Assay results from publication PMC11470957, “Principles of paralog-specific targeted protein degradation engaging the C-degron E3 KLHDC2” (Nature Communications, 2024).
Where “and” joins values, the source holds several entries; their conditions need not be identical. Identical values can stand only once.

Experiments:
[1] = test system: SKBR3, AU565, RD, SKES1, A673 cells; assay: Cell Titer-Glo Luminescent Cell Viability assay; conditions: 24 h, read-out: IC50, cell viability
BRD3^BD2 = BRD3^BD2 (Homo sapiens, UniProt Q15059); assay: ITC, binary binding to BRD3^BD2
[2] = molecular target: K291A KLHDC2^SBD / BRD3^BD2 (Homo sapiens, UniProt Q15059+Q9Y2U9, K291A); assay: ITC, ternary complex K291A KLHDC2^SBD with PROTAC-BRD3^BD2
BRD4^BD2 = BRD4^BD2 (Homo sapiens, UniProt O60885); assay: ITC, binary binding to BRD4^BD2
KLHDC2^SBD / BRD3^BD2 = KLHDC2^SBD / BRD3^BD2 (Homo sapiens, UniProt Q15059+Q9Y2U9); assay: ITC, ternary complex KLHDC2^SBD with PROTAC-BRD3^BD2
[3] = molecular target: KLHDC2^SBD / G386E BRD4^BD2 (Homo sapiens, UniProt O60885+Q9Y2U9, G386E); assay: ITC, ternary complex KLHDC2^SBD with PROTAC-G386E BRD4^BD2
[4] = molecular target: R112A KLHDC2^SBD / BRD3^BD2 (Homo sapiens, UniProt Q15059+Q9Y2U9, R112A); assay: ITC, ternary complex R112A KLHDC2^SBD with PROTAC-BRD3^BD2
[5] = molecular target: KLHDC2^SBD / G382E BRD2^BD2 (Homo sapiens, UniProt P25440+Q9Y2U9, G382E); assay: ITC, ternary complex KLHDC2^SBD with PROTAC-G382E BRD2^BD2
BRD2^BD2 = BRD2^BD2 (Homo sapiens, UniProt P25440); assay: ITC, binary binding to BRD2^BD2
[6] = molecular target: R56A KLHDC2^SBD / G386E BRD4^BD2 (Homo sapiens, UniProt O60885+Q9Y2U9, G386E/R56A); assay: ITC, ternary complex R56A KLHDC2^SBD with PROTAC-G386E BRD4^BD2
KLHDC2^SBD / BRD2^BD2 = KLHDC2^SBD / BRD2^BD2 (Homo sapiens, UniProt P25440+Q9Y2U9); assay: ITC, ternary complex KLHDC2^SBD with PROTAC-BRD2^BD2
[7] = cell: SJ46421, syringe: BRD3^BD2
[8] = ITC source data Fig4f, N=1, syringe K291A KLHDC2, cell SJ46421-BRD3BD2
[9] = ITC, syringe K291A KLHDC2, cell compound-BRD3BD2, N=1
[10] = cell: SJ46421-BRD3^BD2, syringe: K291A KLHDC2^SBD, n=1
[11] = ITC, syringe BRD4BD2, cell compound, Rep1, Rep2
[12] = cell: SJ46421, syringe: BRD4^BD2
[13] = cell: PROTAC-BRD3^BD2, syringe: KLHDC2^SBD
[14] = cell: SJ46421-G386E BRD4^BD2, syringe: KLHDC2^SBD
[15] = ITC source data Fig4f, N=1, syringe R112A KLHDC2, cell SJ46421-BRD3BD2
[16] = ITC, syringe R112A KLHDC2, cell compound-BRD3BD2, N=1
[17] = cell: SJ46421-BRD3^BD2, syringe: R112A KLHDC2^SBD, n=1
[18] = cell: SJ46421-G382E BRD2^BD2, syringe: KLHDC2^SBD
[19] = cell: SJ46421, syringe: BRD2^BD2
[20] = cell: SJ46421-G386E BRD4^BD2, syringe: R56A KLHDC2^SBD
[21] = ITC, syringe KLHDC2, cell BRD2BD2-compound, Rep1, Rep2
[22] = cell: PROTAC-BRD2^BD2, syringe: KLHDC2^SBD

Chain of BRD3^BD2 (Q15059 306-416): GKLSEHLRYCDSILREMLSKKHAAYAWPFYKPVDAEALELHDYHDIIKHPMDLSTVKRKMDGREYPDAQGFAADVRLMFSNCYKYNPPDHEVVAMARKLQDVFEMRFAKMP
Chain of KLHDC2^SBD / BRD2^BD2 (Q9Y2U9 15-361): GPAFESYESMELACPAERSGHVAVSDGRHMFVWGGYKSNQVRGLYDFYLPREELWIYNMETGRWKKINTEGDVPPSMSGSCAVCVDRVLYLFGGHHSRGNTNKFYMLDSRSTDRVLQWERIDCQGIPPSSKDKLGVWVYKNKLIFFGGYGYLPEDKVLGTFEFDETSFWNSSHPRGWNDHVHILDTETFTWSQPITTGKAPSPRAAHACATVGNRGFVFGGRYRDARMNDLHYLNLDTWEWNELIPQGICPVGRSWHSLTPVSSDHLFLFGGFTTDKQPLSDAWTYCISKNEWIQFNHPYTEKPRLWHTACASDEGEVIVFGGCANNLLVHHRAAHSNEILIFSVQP
Chain of KLHDC2^SBD / BRD2^BD2 (P25440 344-455): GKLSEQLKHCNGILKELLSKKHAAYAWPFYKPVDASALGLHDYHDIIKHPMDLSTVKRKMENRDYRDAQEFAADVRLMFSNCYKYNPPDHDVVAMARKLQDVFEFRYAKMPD
Chain of KLHDC2^SBD / BRD3^BD2 (Q9Y2U9 15-361): as the sequence (Q9Y2U9 15-361) above
Chain of KLHDC2^SBD / BRD3^BD2 (Q15059 306-416): as the sequence (Q15059 306-416) above
Chain of KLHDC2^SBD / G386E BRD4^BD2 (Q9Y2U9 15-361, other chains not shown): as the sequence (Q9Y2U9 15-361) above
Chain of KLHDC2^SBD / G382E BRD2^BD2 (Q9Y2U9 15-361): as above
Chain of KLHDC2^SBD / G382E BRD2^BD2 (P25440 344-455 G382E): as the sequence (P25440 344-455) above, with G39E counted along it
Chain of K291A KLHDC2^SBD / BRD3^BD2 (Q9Y2U9 15-361 K291A): as the sequence (Q9Y2U9 15-361) above, with K277A counted along it
Chain of K291A KLHDC2^SBD / BRD3^BD2 (Q15059 306-416): as the sequence (Q15059 306-416) above
Chain of BRD2^BD2 (P25440 344-455): as the sequence (P25440 344-455) above
Chain of R56A KLHDC2^SBD / G386E BRD4^BD2 (Q9Y2U9 15-361 R56A, other chains not shown): as the sequence (Q9Y2U9 15-361) above, with R42A counted along it
Chain of R112A KLHDC2^SBD / BRD3^BD2 (Q9Y2U9 15-361 R112A): as the sequence (Q9Y2U9 15-361) above, with R98A counted along it
Chain of R112A KLHDC2^SBD / BRD3^BD2 (Q15059 306-416): as the sequence (Q15059 306-416) above

COC(=O)CNC(=O)Cc1csc(-c2ccc3cccc(OCCN4CCN(C(=O)C[C@@H]5N=C(c6ccc(Cl)cc6)c6c(sc(C)c6C)-n6c(C)nnc65)CC4)c3c2)n1 [SJ46420]
IC50 [1]: ~0.3 µM

Cc1sc2c(c1C)C(c1ccc(Cl)cc1)=N[C@@H](CC(=O)N1CCN(CCOc3cccc4ccc(-c5nc(CC(=O)NCC(=O)O)cs5)cc34)CC1)c1nnc(C)n1-2 [SJ46421]
Kd (BRD3^BD2; ITC Kd, cell: SJ46421, syringe: BRD3^BD2): 1 ± 0.194 µM | (-)TDS (BRD3^BD2; ITC, syringe BRD3BD2, cell compound, Rep1, Rep2): 5.34 and 5 | Kd (BRD3^BD2; Kd, Rep1/Rep2, ITC source data Fig4a, syringe BRD3BD2, cell SJ46421): 1.07 µM and 0.908 µM | ITC -TΔS (BRD3^BD2; [7]): 5.11 +/- 0.24 kcal/mol-1 | ITC N (BRD3^BD2; [7]): 0.9 | ITC ΔH (BRD3^BD2; [7]): -13.5 +/- 0.53 kcal/mol-1 | Kd [2]: 0.0256 µM | (-)TDS, Rep1 [2, 8]: -5.73 | DG, Rep1 [2, 8]: -10.6 | DH, Rep1 [2, 8]: -4.87 | (-)TDS [2, 9]: -5.73 | DG [2, 9]: -10.6 | DH [2, 9]: -4.87 | cooperativity α ([2]; K291A KLHDC2^SBD, estimated from the binding affinity of SJ46421 to WT KLHDC2): 11.9 | ITC -TΔS (ternary) [2, 10]: -5.73 kcal/mol-1 | ITC N (ternary) [2, 10]: 0.9 | ITC ΔG (ternary) [2, 10]: -10.6 kcal/mol-1 | ITC ΔH (ternary) [2, 10]: -4.87 kcal/mol-1 | (-)TDS (BRD4^BD2; [11]): 1.81 and 1.64 | DH (BRD4^BD2; [11]): -9.89 | Kd (BRD4^BD2; Kd, Rep1/Rep2, ITC source data Fig4a, syringe BRD4BD2, cell SJ46421): 1.08 µM and 0.958 µM | ITC -TΔS (BRD4^BD2; [12]): 1.73 +/- 0.14 kcal/mol-1 | ITC N (BRD4^BD2; [12]): 0.9 | ΔG (binary + ternary) (KLHDC2^SBD / BRD3^BD2; BRD3^BD2): -83.3 kJ/mol | cooperativity α (KLHDC2^SBD / BRD3^BD2; BRD3^BD2, KLHDC2^SBD): 16 | (-)TDS (KLHDC2^SBD / BRD3^BD2; ITC, syringe KLHDC2, cell BRD3BD2-compound (printed BRD2BD3 for SJ46421), Rep1, Rep2): 1.05 | ITC N (ternary) (KLHDC2^SBD / BRD3^BD2; [13]): 0.9 | ITC ΔG (ternary) (KLHDC2^SBD / BRD3^BD2; [13]): -10.8 +/- 0.01 kcal/mol-1 | ITC ΔH (ternary) (KLHDC2^SBD / BRD3^BD2; [13]): -6.65 +/- 0.79 kcal/mol-1 | cooperativity α ([3]; G386E BRD4^BD2, KLHDC2^SBD): 13 and 12.7 | Kd ([3]; Kd, Rep1/Rep2, ITC source data Fig4f, syringe KLHDC2, cell SJ46421-G386EBRD4BD2): 0.0234 µM and 0.0259 µM | ITC -TΔS (ternary) [3, 14]: -1.30 +/- 0.11 kcal/mol-1 | ITC N (ternary) [3, 14]: 0.9 | ITC ΔG (ternary) [3, 14]: -10.6 +/- 0.04 kcal/mol-1 | ITC ΔH (ternary) [3, 14]: -9.05 +/- 0.37 kcal/mol-1 | Kd [4]: 0.0397 µM | (-)TDS, Rep1 [4, 15]: -7.43 | DG, Rep1 [4, 15]: -10.3 | DH, Rep1 [4, 15]: -2.9 | (-)TDS [4, 16]: -7.43 | DG [4, 16]: -10.3 | DH [4, 16]: -2.9 | cooperativity α ([4]; R112A KLHDC2^SBD, estimated from the binding affinity of SJ46421 to WT KLHDC2): 7.6 | ITC -TΔS (ternary) [4, 17]: -7.43 kcal/mol-1 | ITC N (ternary) [4, 17]: 0.8 | ITC ΔG (ternary) [4, 17]: -10.3 kcal/mol-1 | ITC ΔH (ternary) [4, 17]: -2.9 kcal/mol-1 | cooperativity α ([5]; G382E BRD2^BD2, KLHDC2^SBD): 3.2 | (-)TDS ([5]; ITC, syringe KLHDC2, cell compound-G382EBRD2BD2, Rep1, Rep2): 0.62 and 0.68 | Kd ([5]; Kd, Rep1/Rep2, ITC source data Fig4f, syringe KLHDC2, cell SJ46421-G382EBRD2BD2): 0.103 µM and 0.0881 µM | ITC -TΔS (ternary) [5, 18]: 0.65 +/- 0.07 kcal/mol-1 | ITC N (ternary) [5, 18]: 0.9 | ITC ΔG (ternary) [5, 18]: -9.80 +/- 0.02 kcal/mol-1 | ITC ΔH (ternary) [5, 18]: -10.5 +/- 0.11 kcal/mol-1 | Kd (BRD2^BD2; ITC Kd, cell: SJ46421, syringe: BRD2^BD2): 2.14 ± 0.306 µM | (-)TDS (BRD2^BD2; ITC, syringe BRD2BD2, cell compound, Rep1, Rep2): 2.71 and 2.54 | Kd (BRD2^BD2; Kd, Rep1/Rep2, ITC source data Fig4a, syringe BRD2BD2, cell SJ46421): 2.29 µM and 1.89 µM | ITC -TΔS (BRD2^BD2; [19]): 2.63 +/- 0.12 kcal/mol-1 | ITC N (BRD2^BD2; [19]): 0.9 | ITC ΔH (BRD2^BD2; [19]): -10.5 +/- 0.45 kcal/mol-1 | cooperativity α ([6]; G386E BRD4^BD2, R56A KLHDC2^SBD): 1.4 | Kd ([6]; Kd, Rep1/Rep2, ITC source data Fig4f, syringe R56A KLHDC2, cell SJ46421-G386EBRD4BD2): 0.333 µM and 0.325 µM | ITC -TΔS (ternary) [6, 20]: -4.42 +/- 0.19 kcal/mol-1 | ITC N (ternary) [6, 20]: 1.1 | ITC ΔG (ternary) [6, 20]: -9.05 +/- 0.01 kcal/mol-1 | ITC ΔH (ternary) [6, 20]: -4.69 +/- 0.15 kcal/mol-1 | ΔG (binary + ternary) (KLHDC2^SBD / BRD2^BD2; BRD2^BD2): -77 kJ/mol | (-)TDS (KLHDC2^SBD / BRD2^BD2; [21]): 1.18 and 0.97 | DH (KLHDC2^SBD / BRD2^BD2; [21]): -10.5 | ITC -TΔS (ternary) (KLHDC2^SBD / BRD2^BD2; [22]): 1.08 +/- 0.19 kcal/mol-1 | ITC N (ternary) (KLHDC2^SBD / BRD2^BD2; [22]): 0.9 | ITC ΔG (ternary) (KLHDC2^SBD / BRD2^BD2; [22]): -9.33 +/- 0.05 kcal/mol-1 | ITC ΔH (ternary) (KLHDC2^SBD / BRD2^BD2; [22]): -10.4 +/- 0.10 kcal/mol-1
